From patent US12162888B2, “Carboxamides as ubiquitin-specific protease inhibitors” (Valo Early Discovery, Inc., priority 2018, dated 2024)

Each compound was assayed against T1, USP25 (USP25-His6, Boston Biochem E-546) (Homo sapiens, UniProt Q9UHP3) (assay: Ubiquitin-Rhodamine 110 Assay for USP25 Activity, Example A-3). Details: Ubiquitin-Rhodamine 110 assay, Example A-3; IC50 ranges; read-out: USP25 A-3 IC50.
T1 construct: His6 (C); purchased Boston Biochem E-546
T1 sequence (Q9UHP3 1-1055): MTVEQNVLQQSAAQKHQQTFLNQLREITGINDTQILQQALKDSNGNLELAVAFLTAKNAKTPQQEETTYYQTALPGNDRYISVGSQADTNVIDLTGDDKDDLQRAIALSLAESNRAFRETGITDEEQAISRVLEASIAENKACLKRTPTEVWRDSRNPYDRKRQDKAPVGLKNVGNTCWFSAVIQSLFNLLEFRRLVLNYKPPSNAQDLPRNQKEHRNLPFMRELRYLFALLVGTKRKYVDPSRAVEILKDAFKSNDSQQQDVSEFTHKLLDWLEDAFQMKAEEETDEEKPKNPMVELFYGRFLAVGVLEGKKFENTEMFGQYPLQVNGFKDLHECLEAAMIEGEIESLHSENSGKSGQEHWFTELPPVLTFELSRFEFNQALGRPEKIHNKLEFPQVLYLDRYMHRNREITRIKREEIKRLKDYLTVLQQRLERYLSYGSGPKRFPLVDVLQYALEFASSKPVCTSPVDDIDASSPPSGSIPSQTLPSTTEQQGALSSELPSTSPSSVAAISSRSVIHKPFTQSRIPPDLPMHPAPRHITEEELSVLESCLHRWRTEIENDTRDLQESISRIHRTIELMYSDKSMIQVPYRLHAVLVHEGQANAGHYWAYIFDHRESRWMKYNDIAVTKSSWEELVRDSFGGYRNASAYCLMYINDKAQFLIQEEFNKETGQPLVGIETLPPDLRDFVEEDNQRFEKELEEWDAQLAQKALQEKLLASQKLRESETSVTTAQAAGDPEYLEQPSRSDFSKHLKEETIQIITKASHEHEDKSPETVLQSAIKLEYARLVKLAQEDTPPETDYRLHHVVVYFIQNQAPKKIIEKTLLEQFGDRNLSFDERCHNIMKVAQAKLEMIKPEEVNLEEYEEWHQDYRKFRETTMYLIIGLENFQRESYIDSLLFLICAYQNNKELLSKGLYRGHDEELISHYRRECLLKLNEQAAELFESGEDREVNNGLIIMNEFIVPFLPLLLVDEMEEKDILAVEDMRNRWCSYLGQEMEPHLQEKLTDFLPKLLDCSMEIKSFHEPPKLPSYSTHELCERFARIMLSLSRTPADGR
Type: biochemical
Description: Example A-3: Biochemical Assay: Ubiquitin-Rhodamine 110 Assay for USP25 Activity
The assay was performed in a final volume of 9 μL in assay buffer containing 20 mM Tris-HCl (pH 8.0, (1M Tris-HCl, pH 8.0 solution; Corning 46-031-CM)), 3 mM BME (2-Mercaptoethanol; Sigma 63689-25ML-F), 0.03% BGG (0.22 μM filtered, Sigma, G7516-25G), and 0.01% Triton X-100 (Sigma, T9284-10L). Nanoliter quantities of 10-point, 3-fold serial dilution in DMSO was pre-dispensed into 1536 assay plates (Corning, #3724BC) for a final test concentration of 25 μM to 1.3 nM, top to lowest dose, respectively. Enzyme USP25, construct USP25-His6, (Boston Biochem E-546). Concentration and incubation times were optimized for the maximal signal-to-background while maintaining initial velocity conditions at a fixed substrate concentration. The final concentration of the enzyme in the assay was […]. Final substrate (Ub-Rh110; Ubiquitin-Rhodamine 110, R&D Systems #U-555) concentration was 25 nM with [Ub-Rh110]<<Km. 3 μL of 2× enzyme was added to assay plates (pre-stamped with compound) preincubated with […] for 30 minutes and then 3 μL of 2× Ub-Rh110 was added to assay plates. Plates were incubated for 45 minutes at room temperature before addition of 3 μL of stop solution (final concentration of 10 mM citric acid (Sigma, 251275-500G)). Fluorescence was read on the Envision (Excitation at 485 nm and Emission at 535 nm; Perkin Elmer) or on the PheraSTAR (Excitation at 485 nm and Emission at 535 nm; BMG Labtech).
For assay formats Example A-1(a), A-1(b), and A-2, data were reported as percent inhibition compared with control wells based on the following equation: % inh=1−((FLU−AveLow)/(AveHigh−AveLow)) where FLU=measured Fluorescence, AveLow=average Fluorescence of no enzyme control (n=16), and AveHighh=average Fluorescence of DMSO control (n=16). IC50 values were determined by curve fitting of the standard 4 parameter logistic fitting algorithm included in the Activity Base software package: IDBS XE Designer Model 205. Data is fitted using the Levenburg Marquardt algorithm.

Row | Compound | IC50 [µM]
1 | Cc1cc(C)c2c(N)c(C(=O)N[C@H]3COc4cc(N5CC6CCC(C5)N6)c(C#N)c(F)c4C3)sc2n1 [Example 241, 3-amino-N-[(3R)-6-cyano-7-{3,8-diazabicyclo[3.2.1]octan-3-yl}-5-fluoro-3,4-dihydro-2H-1-benzopyran-3-yl]-4,6-dimethylthieno[2,3-b]pyridine-2-carboxamide] | 0.05 to 0.2

Same assay, conditions: Ubiquitin-Rhodamine 110 assay, Example A-3; read-out: USP25 A-3 IC50 range

Row | Compound | IC50 [µM]
2 | Cc1ccc2c(N)c(C(=O)N[C@H]3CCc4nc(N5CC[C@@]6(C5)OCC[C@H]6N)ccc4C3)sc2n1 [Example 405, 3-amino-N-[(6S)-2-[(4R,5S)-4-amino-1-oxa-7-azaspiro[4.4]nonan-7-yl]-5,6,7,8-tetrahydroquinolin-6-yl]-6-methylthieno[2,3-b]pyridine-2-carboxamide] | 0.2 to 2
3 | Cc1ccc2c(N)c(C(=O)N[C@H]3CCc4nc(N5C[C@H](N)[C@]6(CCOC6)C5)ccc4C3)sc2n1 [Example 430, 3-amino-N-[(6S)-2-[(5S,9R)-9-amino-2-oxa-7-azaspiro[4.4]nonan-7-yl]-5,6,7,8-tetrahydroquinolin-6-yl]-6-methylthieno[2,3-b]pyridine-2-carboxamide] | > 2
4 | CN[C@H]1CN(c2ccc3c(n2)CC[C@H](NC(=O)c2sc4nc(C)ccc4c2N)C3)C[C@@H]1C(F)F [Example 376, 3-amino-N-[(6S)-2-[(3S,4R)-3-(difluoromethyl)-4-(methylamino)pyrrolidin-1-yl]-5,6,7,8-tetrahydroquinolin-6-yl]-6-methylthieno[2,3-b]pyridine-2-carboxamide] | > 2
5 | Cc1ccc2c(N)c(C(=O)N[C@H]3CCc4nc(N5C[C@@H]6CCN[C@H](C5)C6(F)F)ccc4C3)sc2n1 [Example 367, 3-amino-N-[(6S)-2-[(1R,5S)-9,9-difluoro-2,7-diazabicyclo[3.3.1]nonan-7-yl]-5,6,7,8-tetrahydroquinolin-6-yl]-6-methylthieno[2,3-b]pyridine-2-carboxamide] | 0.05 to 0.2
6 | CN[C@@H]1CN(c2ccc3c(n2)CC[C@H](NC(=O)c2sc4nc(C)ccc4c2N)C3)C[C@H]1C(F)F [Example 377, 3-amino-N-[(6S)-2-[(3R,4S)-3-(difluoromethyl)-4-(methylamino)pyrrolidin-1-yl]-5,6,7,8-tetrahydroquinolin-6-yl]-6-methylthieno[2,3-b]pyridine-2-carboxamide] | > 2
7 | Cc1ccc2c(N)c(C(=O)N[C@@H]3COc4cc(N5C[C@@H]6CNC[C@H]6C5)ccc4C3)sc2n1 [Example 42, 3-amino-N-((S)-7-((3aS,6aS)-hexahydropyrrolo[3,4-c]pyrrol-2(1H)-yl)chroman-3-yl)-6-methylthieno[2,3-b]pyridine-2-carboxamide] | 0.2 to 2
8 | Cc1ccc2c(N)c(C(=O)N[C@H]3CCc4nc(N5C6CC(N)CC5CS(=O)(=O)C6)ccc4C3)sc2n1 (stereo partly drawn) [Example 429, 3-amino-N-[(6S)-2-{7-amino-3,3-dioxo-3λ-thia-9-azabicyclo[3.3.1]nonan-9-yl}-5,6,7,8-tetrahydroquinolin-6-yl]-6-methylthieno[2,3-b]pyridine-2-carboxamide] | 0.05 to 0.2
9 | Cc1ccc2c(N)c(C(=O)N[C@H]3CCc4nc(N5CC[C@]6(C5)OCC[C@H]6N)ccc4C3)sc2n1 [Example 408, 3-amino-N-[(6S)-2-[(4R,5R)-4-amino-1-oxa-7-azaspiro[4.4]nonan-7-yl]-5,6,7,8-tetrahydroquinolin-6-yl]-6-methylthieno[2,3-b]pyridine-2-carboxamide] | > 2
10 | Cc1ccc2c(N)c(C(=O)N[C@H]3CCc4nc(N5C[C@@H](CF)[C@H](N)C5)ccc4C3)sc2n1 [Example 385, 3-amino-N-[(6S)-2-[(3S,4R)-3-amino-4-(fluoromethyl)pyrrolidin-1-yl]-5,6,7,8-tetrahydroquinolin-6-yl]-6-methylthieno[2,3-b]pyridine-2-carboxamide] | > 2
11 | Cc1ccc2c(N)c(C(=O)N[C@H]3CCc4nc(N5CC[C@@]6(C5)OCC[C@@H]6N)ccc4C3)sc2n1 [Example 407, 3-amino-N-[(6S)-2-[(4S,5S)-4-amino-1-oxa-7-azaspiro[4.4]nonan-7-yl]-5,6,7,8-tetrahydroquinolin-6-yl]-6-methylthieno[2,3-b]pyridine-2-carboxamide] | > 2
